In the supplement of paper PMC10307832:

Key:
Experiment in all cases: relative viability (nuclei count vs DMSO), 5 days (fraction); higher = more cells survive
HCC-366 = tested on: HCC-366
Summary of the method: (§1)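 For relative viability, nuclei counts in treated wells were divided by those in vehicle wells. Lung cancer cell lines had been pin-tool dosed in 1536-well plates the day after seeding and cultured for 5 days, then fixed and stained in one step (final 0.05% Triton X-100, 1% formaldehyde, 1 ug/ml Hoechst) and imaged at 4×. Doses were one drug alone or a fixed anchor-drug dose plus five library-drug doses (not always all listed) in √10 steps, and values are duplicate-plate medians.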

NCI-H441 = tested on: NCI-H441
Summary of the method: as §1

NCI-H1651 = tested on: NCI-H1651
Summary of the method: as §1

NCI-H1734 = tested on: NCI-H1734
Summary of the method: as §1

NCI-H1755 = tested on: NCI-H1755
Summary of the method: as §1

NCI-H596 = tested on: NCI-H596
Summary of the method: as §1

PC-3 [JPC-3] = tested on: PC-3 [JPC-3]
Summary of the method: as §1

NCI-H1563 = tested on: NCI-H1563
Summary of the method: as §1

RERF-LC-KJ = tested on: RERF-LC-KJ
Summary of the method: as §1

NCI-H2347 = tested on: NCI-H2347
Summary of the method: as §1

EMC-BAC-2 = tested on: EMC-BAC-2
Summary of the method: as §1

NCI-H1650 = tested on: NCI-H1650
Summary of the method: as §1

NCI-H1437 = tested on: NCI-H1437
Summary of the method: as §1

CAL-12T = tested on: CAL-12T
Summary of the method: as §1

NCI-H727 = tested on: NCI-H727
Summary of the method: as §1

ABC-1 = tested on: ABC-1
Summary of the method: as §1

COR-L23 = tested on: COR-L23
Summary of the method: as §1

NCI-H3122 = tested on: NCI-H3122
Summary of the method: as §1

UMC-11 = tested on: UMC-11
Summary of the method: as §1

LK-2 = tested on: LK-2
Summary of the method: as §1

SK-LU-1 = tested on: SK-LU-1
Summary of the method: as §1

HARA = tested on: HARA
Summary of the method: as §1

HOP-62 = tested on: HOP-62
Summary of the method: as §1

With `CN1CCN(CCOc2cc(OC3CCOCC3)c3c(Nc4c(Cl)ccc5c4OCO5)ncnc3c2)CC1` [Saracatinib] + COc1cc2c(Oc3ccc(NC(=O)C4(C(=O)Nc5ccc(F)cc5)CC4)cc3F)ccnc2cc1OCCCN1CCOCC1 [Foretinib] (partner 0.25 µM) as the compound, how does the relative viability (HCC-366; first compound 0.02 µM) read?
Its relative viability is 0.896.

And the relative viability (HCC-366; first compound 0.6325 µM)?
Its relative viability is 0.844.

What about the relative viability (HCC-366; first compound 2 µM) of the same compound?
The relative viability was 0.531.

And the relative viability (NCI-H441; first compound 0.02 µM)?
The relative viability was 1.04.

And the relative viability (NCI-H441; first compound 0.2 µM)?
Its relative viability is 0.985.

What about the relative viability (NCI-H441; first compound 0.6325 µM) of the same compound?
The relative viability was 1.08.

And the relative viability (NCI-H441; first compound 2 µM)?
The relative viability was 1.13.

And the relative viability (NCI-H1651; first compound 0.02 µM)?
The relative viability was 0.844.

And the relative viability (NCI-H1651; first compound 0.2 µM)?
The relative viability was 0.561.

And the relative viability (NCI-H1651; first compound 0.6325 µM)?
The relative viability was 0.908.

What about the relative viability (NCI-H1651; first compound 2 µM) of the same compound?
The relative viability was 0.657.

What about the relative viability (NCI-H1734; first compound 0.02 µM) of the same compound?
The relative viability was 0.852.

And the relative viability (NCI-H1734; first compound 0.6325 µM)?
Its relative viability is 0.805.

And the relative viability (NCI-H1734; first compound 2 µM)?
The relative viability was 0.605.

And the relative viability (NCI-H1755; first compound 0.02 µM)?
The relative viability was 0.936.

What about the relative viability (NCI-H1755; first compound 0.2 µM) of the same compound?
Its relative viability is 0.849.

What about the relative viability (NCI-H1755; first compound 0.6325 µM) of the same compound?
Its relative viability is 0.821.

What about the relative viability (NCI-H1755; first compound 2 µM) of the same compound?
Its relative viability is 0.792.

And the relative viability (NCI-H596; first compound 0.02 µM)?
The relative viability was 0.874.

And the relative viability (NCI-H596; first compound 0.2 µM)?
The relative viability was 0.641.

What about the relative viability (NCI-H596; first compound 0.6325 µM) of the same compound?
Its relative viability is 0.826.

And the relative viability (NCI-H596; first compound 2 µM)?
The relative viability was 0.591.

And the relative viability (PC-3 [JPC-3]; first compound 0.02 µM)?
The relative viability was 1.04.

What about the relative viability (PC-3 [JPC-3]; first compound 0.2 µM) of the same compound?
Its relative viability is 0.889.

What about the relative viability (PC-3 [JPC-3]; first compound 0.6325 µM) of the same compound?
Its relative viability is 0.693.

What about the relative viability (PC-3 [JPC-3]; first compound 2 µM) of the same compound?
Its relative viability is 0.396.

What about the relative viability (NCI-H1563; first compound 0.02 µM) of the same compound?
The relative viability was 0.924.

What about the relative viability (NCI-H1563; first compound 0.2 µM) of the same compound?
The relative viability was 0.782.

And the relative viability (NCI-H1563; first compound 0.6325 µM)?
Its relative viability is 0.76.

What about the relative viability (NCI-H1563; first compound 2 µM) of the same compound?
The relative viability was 0.649.

And the relative viability (RERF-LC-KJ; first compound 0.02 µM)?
The relative viability was 0.895.

What about the relative viability (RERF-LC-KJ; first compound 0.2 µM) of the same compound?
Its relative viability is 0.855.

And the relative viability (RERF-LC-KJ; first compound 0.6325 µM)?
The relative viability was 0.917.

And the relative viability (RERF-LC-KJ; first compound 2 µM)?
The relative viability was 0.877.

And the relative viability (NCI-H2347; first compound 0.02 µM)?
Its relative viability is 1.32.

And the relative viability (NCI-H2347; first compound 0.2 µM)?
The relative viability was 0.852.

What about the relative viability (NCI-H2347; first compound 0.6325 µM) of the same compound?
The relative viability was 0.469.

What about the relative viability (NCI-H2347; first compound 2 µM) of the same compound?
Its relative viability is 0.712.

What about the relative viability (EMC-BAC-2; first compound 0.02 µM) of the same compound?
The relative viability was 1.01.

What about the relative viability (EMC-BAC-2; first compound 0.2 µM) of the same compound?
The relative viability was 0.8.

And the relative viability (EMC-BAC-2; first compound 0.6325 µM)?
The relative viability was 1.01.

What about the relative viability (EMC-BAC-2; first compound 2 µM) of the same compound?
The relative viability was 0.704.

What about the relative viability (NCI-H1650; first compound 0.02 µM) of the same compound?
Its relative viability is 0.948.

What about the relative viability (NCI-H1650; first compound 0.2 µM) of the same compound?
Its relative viability is 0.775.

And the relative viability (NCI-H1650; first compound 0.6325 µM)?
Its relative viability is 0.46.

And the relative viability (NCI-H1650; first compound 2 µM)?
Its relative viability is 0.456.

What about the relative viability (NCI-H1437; first compound 0.02 µM) of the same compound?
Its relative viability is 1.27.

What about the relative viability (NCI-H1437; first compound 0.2 µM) of the same compound?
The relative viability was 1.22.

What about the relative viability (NCI-H1437; first compound 0.6325 µM) of the same compound?
The relative viability was 1.3.

What about the relative viability (NCI-H1437; first compound 2 µM) of the same compound?
Its relative viability is 1.3.

And the relative viability (CAL-12T; first compound 0.02 µM)?
The relative viability was 1.12.

And the relative viability (CAL-12T; first compound 0.2 µM)?
The relative viability was 1.02.

What about the relative viability (CAL-12T; first compound 0.6325 µM) of the same compound?
The relative viability was 1.33.

What about the relative viability (CAL-12T; first compound 2 µM) of the same compound?
The relative viability was 1.18.

And the relative viability (NCI-H727; first compound 0.02 µM)?
The relative viability was 0.814.

What about the relative viability (NCI-H727; first compound 0.2 µM) of the same compound?
Its relative viability is 1.04.

And the relative viability (NCI-H727; first compound 0.6325 µM)?
Its relative viability is 0.923.

And the relative viability (NCI-H727; first compound 2 µM)?
The relative viability was 0.553.

What about the relative viability (ABC-1; first compound 0.02 µM) of the same compound?
Its relative viability is 1.08.

What about the relative viability (ABC-1; first compound 0.2 µM) of the same compound?
Its relative viability is 0.975.

And the relative viability (ABC-1; first compound 0.6325 µM)?
The relative viability was 0.998.

What about the relative viability (ABC-1; first compound 2 µM) of the same compound?
Its relative viability is 1.01.

And the relative viability (COR-L23; first compound 0.02 µM)?
The relative viability was 0.905.

And the relative viability (COR-L23; first compound 0.2 µM)?
The relative viability was 0.917.

And the relative viability (COR-L23; first compound 0.6325 µM)?
Its relative viability is 0.87.

And the relative viability (COR-L23; first compound 2 µM)?
The relative viability was 0.886.

What about the relative viability (NCI-H3122; first compound 0.02 µM) of the same compound?
Its relative viability is 0.927.

What about the relative viability (NCI-H3122; first compound 0.2 µM) of the same compound?
Its relative viability is 0.891.

And the relative viability (NCI-H3122; first compound 0.6325 µM)?
The relative viability was 0.9.

And the relative viability (NCI-H3122; first compound 2 µM)?
The relative viability was 0.66.

What about the relative viability (UMC-11; first compound 0.02 µM) of the same compound?
Its relative viability is 0.977.

What about the relative viability (UMC-11; first compound 0.6325 µM) of the same compound?
The relative viability was 0.982.

What about the relative viability (UMC-11; first compound 2 µM) of the same compound?
Its relative viability is 0.734.

And the relative viability (LK-2; first compound 0.02 µM)?
Its relative viability is 0.997.

What about the relative viability (LK-2; first compound 0.2 µM) of the same compound?
Its relative viability is 1.09.

And the relative viability (LK-2; first compound 0.6325 µM)?
Its relative viability is 1.41.

And the relative viability (LK-2; first compound 2 µM)?
Its relative viability is 0.537.

What about the relative viability (SK-LU-1; first compound 0.02 µM) of the same compound?
Its relative viability is 0.602.

And the relative viability (SK-LU-1; first compound 0.2 µM)?
The relative viability was 0.51.

What about the relative viability (SK-LU-1; first compound 0.6325 µM) of the same compound?
Its relative viability is 0.415.

What about the relative viability (SK-LU-1; first compound 2 µM) of the same compound?
The relative viability was 0.298.

And the relative viability (HARA; first compound 0.02 µM)?
Its relative viability is 0.873.

What about the relative viability (HARA; first compound 0.2 µM) of the same compound?
The relative viability was 0.751.

What about the relative viability (HARA; first compound 0.6325 µM) of the same compound?
The relative viability was 0.739.

And the relative viability (HARA; first compound 2 µM)?
The relative viability was 0.368.

And the relative viability (HOP-62; first compound 0.02 µM)?
Its relative viability is 1.17.

What about the relative viability (HOP-62; first compound 0.2 µM) of the same compound?
Its relative viability is 1.02.

What about the relative viability (HOP-62; first compound 0.6325 µM) of the same compound?
The relative viability was 1.13.

And the relative viability (HOP-62; first compound 2 µM)?
Its relative viability is 1.16.
